Experiments:
[1] = test system: VENTURIA INAEQUALS (APPLE); experiment: foliar fungal disease control test (Table III); format: in vivo, Venturia inaequalis; details: 100 ppm foliar spray plus root drench ca. 40 ppm a.i./dry soil; 1-2 days before inoculation
Protocol: (§1) The compounds were tested against a variety of foliar fungal diseases of plants. The technique employed was as follows.
(§2) The plants were grown in John Innes Potting Compost (No 1 or 2) in 4 cm diameter minipots. The test compounds were formulated either by bead milling with aqueous Dispersol T or as a solution in acetone or acetone/ethanol which was diluted to the required concentration immediately before use. For the foliage diseases, the formulations (100 ppm active ingredient) were sprayed on to the foliage and applied to the roots of the plants in the soil. The sprays were applied to maximum retention and the root drenches to a final concentration equivalent to approximately 40 ppm a.i./dry soil. Tween 20, to give a final concentration of 0.05%, was added when the sprays were applied to cereals.
(§3) For most of the tests the compound was applied to the soil (roots) and to the foliage (by spraying) one or two days before the plant was inoculated with the disease. An exception was the test on Erysiphe graminis in which the plants were inoculated 24 hours before treatment. Foliar pathogens were applied by spray as spore suspensions onto the leaves of test plants. After inoculation, the plants were put into an appropriate environment to allow infection to proceed and then incubated until the disease was ready for assessment. The period between inoculation and assessment varied from four to fourteen days according to the disease and environment.
(§4) The disease control was recorded by the following grading: […]

[…] (VINE) = foliar fungal disease control test (Table III); format: in vivo, Plasmopara viticola; details: 100 ppm foliar spray plus root drench ca. 40 ppm a.i./dry soil; 1-2 days before inoculation
Protocol: as §1, §2, §3, §4

PH[…] (TOMATO) = format: in vivo, Phytophthora infestans; details: for disease control grading, PH[…] (TOMATO): 100 ppm foliar spray plus root drench ca. 40 ppm a.i./dry soil, 1-2 days before inoculation
[2] = test system: PUCCINIA RECONDITA (WHEAT); experiment: foliar fungal disease control test (Table III); format: in vivo; details: 100 ppm foliar spray plus root drench ca. 40 ppm a.i./dry soil; 1-2 days before inoculation
Protocol: as §1, §2, §3, §4

[3] = test system: CERCOSPORA ARACHIDICOLA (PEANUT); experiment: foliar fungal disease control test (Table III); format: in vivo; details: 100 ppm foliar spray plus root drench ca. 40 ppm a.i./dry soil; 1-2 days before inoculation
Protocol: as §1, §2, §3, §4

[4] = test system: ERYSIPHE GRAMINIS (BARLEY); experiment: foliar fungal disease control test (Table III); format: in vivo; details: 100 ppm foliar spray plus root drench ca. 40 ppm a.i./dry soil; inoculated 24 hours before treatment
Protocol: as §1, §2, §3, §4

[…] (RICE) = format: in vivo, Pyricularia oryzae; details: 100 ppm foliar spray plus root drench ca. 40 ppm a.i./dry soil; 1-2 days before inoculation
[5] = test system: Meloidogyne incognita (tomato root-knot eelworm larvae); experiment: nematocidal activity
Tomato = experiment: whole plant screen for plant growth regulating activity; format: in vivo, Tomato (Ailsa Craig)
Protocol: (§5) These compounds were tested on a whole plant screen for plant growth regulating activity against six species of plant. The plant species used in this screen are presented in Table IV with the leaf stage at which they were sprayed.
(§6) A formulation of each chemical was applied at 4000 ppm (4 kg/ha in a 1000 l/ha field volume) using a tracksprayer and a SS8004E (Teejet) nozzle. Additional tests were done on tomatoes at 2000 and 500 ppm.
(§7) After spraying, the plants were grown in a glasshouse with 25° C. day/22° C. night temperatures. The exceptions to this were the temperate cereals wheat and barley, which were grown in 13°-16° C. day/11°-13° C. night temperatures. Supplementary lighting was supplied when necessary to provide an average photoperiod of 16 hours (14 hours minimum).
(§8) After 2-6 weeks in the glasshouse, depending on species and time of year, the plants were visually asessed for morphological characteristics against a control plant sprayed with a blank formulation.

[6] = test system: Diabrotica balteata (root worm larvae); experiment: insecticidal activity
Barley = experiment: whole plant screen for plant growth regulating activity; format: in vivo, Barley (Atem); details: 4000 ppm (4 kg/ha), assessed after 2-6 weeks
Protocol: as §5, §6, §7, §8

Compound	disease control grading, VENTURIA INAEQUALS (APPLE) [1]	disease control grading, […] (VINE) ([…] (VINE))	disease control grading, PH[…] (TOMATO) (PH[…] (TOMATO))	disease control grading, PUCCINIA RECONDITA (WHEAT) [2]	disease control grading, CERCOSPORA ARACHIDICOLA (PEANUT) [3]	disease control grading, ERYSIPHE GRAMINIS (BARLEY) [4]	disease control grading, […] (RICE) ([…] (RICE))	activity against Meloidogyne incognita [5]	disease control grading, PH[…] (TOMATO), root drench only (PH[…] (TOMATO); 100 ppm root drench only)	plant growth regulating effect, TO (Tomato; 4000 ppm (4 kg/ha), assessed after 2-6 weeks)	plant growth regulating effect, TO+ (Tomato; 500 ppm)	activity against Diabrotica balteata [6]	plant growth regulating effect, BR (Barley)
CO/C=C(/C(=O)OC)c1ncccc1Oc1ccccc1 [Compound 1, (E)-methyl 2-(3'-phenoxypyrid-2'-yl)-3-methoxyacrylate]	3 (trace-5% of disease on untreated plants)	0 (60-100% of disease on untreated plants)	0 (60-100% of disease on untreated plants)	0 (60-100% of disease on untreated plants)	4	3 (trace-5% of disease on untreated plants)	0 (60-100% of disease on untreated plants)	–	–	–	–	–	–
CO/C=C(/C(=O)OC)c1cccnc1Oc1ccccc1 [Compound 15, (E)-methyl-2-(2'-phenoxypyrid-3'-yl)-3-methoxyacrylate]	4	4	–	4	4	4	4	active	4	–	–	–	–
CO/C=C(/C(=O)OC)c1cccnc1Oc1ccc(Cl)cc1 [Compound 16]	4	4	3 (trace-5% of disease on untreated plants)	4	4	4	4	–	–	–	–	–	–
CO/C=C(/C(=O)OC)c1cccnc1Oc1ccc(Br)cc1 [Compound 18]	4	4	0 (60-100% of disease on untreated plants)	1 (26-59% of disease on untreated plants)	4	4	0 (60-100% of disease on untreated plants)	–	–	–	–	–	–
CO/C=C(/C(=O)OC)c1cccnc1Oc1ccc(C)cc1 [Compound 19]	4	4	0 (60-100% of disease on untreated plants)	4	4	4	4	–	–	2GAT	–	–	–
CO/C=C(/C(=O)OC)c1cccnc1Oc1ccc(OC)cc1 [Compound 20]	4	4	0 (60-100% of disease on untreated plants)	4	4	4	4	–	–	–	–	–	–
CO/C=C(/C(=O)OC)c1cccnc1Oc1ccc(C(F)(F)F)cc1 [Compound 21]	4	4	3 (trace-5% of disease on untreated plants)	4	4	4	0 (60-100% of disease on untreated plants)	–	–	–	–	–	–
CO/C=C(/C(=O)OC)c1cccnc1Oc1cccc(Cl)c1 [Compound 23]	4	4	4	4	4	4	4	–	–	–	2G	active	–
CO/C=C(/C(=O)OC)c1ccncc1Oc1ccccc1 [Compound 43, (E)-methyl-2-(3'-phenoxypyrid-4'-yl)-3-methoxyacrylate]	–	–	–	–	–	–	–	–	–	–	–	–	2T
CO/C=C(/C(=O)OC)c1cccnc1Oc1cccc(F)c1 [Compound 57]	4	4	3 (trace-5% of disease on untreated plants)	4	4	4	4	–	–	–	–	–	–
CO/C=C(/C(=O)OC)c1cccnc1Oc1cccc(C)c1 [Compound 58]	4	4	3 (trace-5% of disease on untreated plants)	4	4	4	4	–	–	–	–	–	–
CO/C=C(/C(=O)OC)c1cccnc1Oc1cc(Cl)cc(Cl)c1 [Compound 60]	4	4	4	4	4	4	4	–	–	–	–	–	–
CO/C=C(/C(=O)OC)c1cccnc1OCc1ccccc1 [Compound 66]	4	2 (6-25% of disease on untreated plants)	0 (60-100% of disease on untreated plants)	0 (60-100% of disease on untreated plants)	1 (26-59% of disease on untreated plants)	4	0 (60-100% of disease on untreated plants)	–	–	–	–	–	–
CO/C=C(/C(=O)OC)c1cccnc1Oc1ccc(F)cc1F [Compound 87]	4	0 (60-100% of disease on untreated plants)	0 (60-100% of disease on untreated plants)	3 (trace-5% of disease on untreated plants)	4	4	4	–	–	–	–	–	–
CO/C=C(/C(=O)OC)c1cccnc1Oc1cc(F)cc(F)c1 [Compound 88]	4	4	4	4	3 (trace-5% of disease on untreated plants)	4	2 (6-25% of disease on untreated plants)	–	–	–	–	–	–
CO/C=C(/C(=O)OC)c1ccccn1 [Compound 106]	0 (60-100% of disease on untreated plants)	0 (60-100% of disease on untreated plants)	–	0 (60-100% of disease on untreated plants)	0 (60-100% of disease on untreated plants)	4	0 (60-100% of disease on untreated plants)	–	–	–	–	–	–

Reference: patent US4826531A (priority 1986, dated 1989)
